What was measured:
[1] = Release of neutrophil granule enzymes was evaluated by determining lysozyme activity modified for microplate-based assays.
[2] = Chemotactic index (C.I.) which is the ratio: (migration toward test attractant minus migration toward the buffer)/(migration toward the buffer).; format: functional

Compound	Lysozyme release [1]	Chemotactic index [2]
COC(=O)[C@H](Cc1ccccc1)NC(=O)[C@H](CC(=O)N[C@@H](CCSC)C(=O)N[C@@H](CC(C)C)C(=O)N[C@@H](Cc1ccccc1)C(=O)O)NC(=O)[C@H](CCSC)NC=O	65%	0.5
COC(=O)[C@H](Cc1ccccc1)NC(=O)[C@H](CCCCNC(=O)N[C@@H](CCSC)C(=O)N[C@@H](CC(C)C)C(=O)N[C@@H](Cc1ccccc1)C(=O)O)NC(=O)[C@H](CCSC)NC=O	70%	0.7
COC(=O)[C@H](Cc1ccccc1)NC(=O)[C@H](CC(C)C)NC(=O)[C@H](CCSC)NC=O	60%	1
